Measurements reported in US20250179028A1, “ACRYLAMIDE COMPOUNDS” (NRG THERAPEUTICS LTD, priority 2022, published 2025).
Marks after values point to notes of the source that are not given here.

Tests used:
mPTP [1] = test: mPTP activity assay in isolated rat brain mitochondria; assay type: biochemical; settings: isolated rat brain mitochondria
Protocol: mPTP activity was measured in brain mitochondria freshly isolated from female Sprague Dawley (250 to 300 gram) rats. Anaesthetised rats were perfused in-situ with ˜40 ml cold Dulbecco's Phosphate Buffered Saline (DPBS), then brains dissected and transferred into 30 ml Isolation Buffer (225 mM mannitol, 75 mM sucrose, 1 mM EGTA, adjusted to pH 7.4 with 1 M NaOH). The brain was minced using tweezers and a scalpel into ˜5 mm pieces then transferred into a 50 ml Potterton Dounce homogenization tube on ice containing 10 ml ice-cold isolation buffer (as above with addition of Complete Protease inhibitor; 1 tablet per 50 ml buffer).
Homogenisation was carried out using a […] pestle at 1800 rpm. The slurry was centrifuged at 2000 g for 10 min at 4° C., then the supernatant centrifuged at 12,000 g for 9 min. The pellet was resuspended with a dounce homogeniser in isolation buffer as above but with the addition of 0.02% digitonin, centrifuged at 12,000 g for 11 min and finally resuspended in 5 ml modified isolation buffer (as above but with EGTA reduced to 0.1 mM).
Test compounds were prepared in 384 well polypropylene assay plates as described above for the liver mitochondria assay. A stock mitochondria/Fluo5N assay solution was prepared in 5.6 ml assay buffer (120 mM mannitol, 40 mM MOPS, 5 mM KH2PO4, 60 mM KCl, 10 mM pyruvate, 2 mM malate, 2 mM MgCl2, 20 μM ADP, 1.26 μM oligomycin A, adjusted to pH 7.4) supplemented with Fluo5N pentapotassium salt (2 μM) and 1 ml mitochondria suspension, then transferred (15 μl) into the assay plate containing test compounds and incubated for 10 min at RT. Assay plates were then transferred to a FLIPR Tetra plate reader (Molecular Devices). Dye fluorescence was then measured every 3 sec for a total of 10 min. After 12 sec, a 2.5 μl bolus of Ca2+ (75 μM) was added from a source plate containing 675 μM CaCl2) in FLIPR assay buffer. IC50 values for test compounds were calculated using the fluorescence value collected at the 10 min timepoint with % inhibition calculated using the DMSO control and cyclosporin A values at […].

mPTP [2] = test: mPTP mitochondria membrane potential flow cytometry assay in stimulated human platelets; assay type: cell-based
Protocol: The mPTP cell based assay was performed using a mitochondria membrane potential flow cytometry assay in stimulated human platelets. Simulation of platelets results in the rapid influx of Ca^2+ across the platelet membrane. The Ca^2+ is then sequestered by mitochondria until the threshold for mPTP opening is reached, at which point the pore opens and the mitochondrial membrane potential is dissipated. Changes in mitochondria membrane potential due to mPTP opening can be quantified in live platelets using standard mitochondrial membrane potential dyes e.g. 3,3′-dihexyloxacarbocyanine Iodide; DiOC6(3), enabling pharmacological characterisation of mPTP inhibitors.
Fresh human blood (20 ml) was collected from consenting donors into 3.2% sodium citrate. Platelets were isolated by centrifugation at 200 g for 20 min at room temperature, then the platelet rich plasma layer transferred to a fresh tube. Prostaglandin 12 is added to the platelets at a final concentration of 20 ng/ml. After centrifugation at 640 g for 10 min, the platelet rich pellet was resuspended in 4 ml HEPES assay buffer (137 mM NaCl, 2.7 mM KCl, 11.9 mM NaHCO3, 0.42 mM NaH2PO4, 1 mM MgCl2, 5.5 mM glucose, 0.1% bovine serum albumin, 10 mM HEPES adjusted to pH 7.4) and stored on ice.
Test compounds were prepared from 10 mM stocks in DMSO and serially diluted in assay buffer containing 0.4% DMSO and 25 μl transferred into a 96 well plate. Platelets were loaded with the mitochondrial membrane potential dye DiOC6(3) (3,3′-dihexyloxacarbocyanine Iodide; Invitrogen) at 200 nM for 30 min, then 50 μl plated into each well of the 96 well plate containing diluted test compound and incubated for 15 min. Control wells included DMSO (0.1% final concentration) only or 5 μM cyclosporin A. Platelets were then stimulation with the addition of assay buffer (25 μl) containing CaCl2, alpha thrombin and Convulxin to achieve a final concentrations of 2 mM, 0.017 U/ml and 0.167 μg/ml respectively and incubated for 14 min. The reaction was stopped by the addition of 25 μl 15 mM EDTA in assay buffer. The mitochondrial membrane potential across the population of platelets in each well was then quantified by flow cytometry using a Guava easyCyte 5 Benchtop Flow Cytometer with 3000 events per well. The percentage of platelets with a depolarised mitochondrial membrane potential was calculated for each well. A pIC50 for each compound was then calculated using a standard four parameter curve fit model (GraphPad Prism).

[3] = Microsomal clearance assay; assay type: in vitro ADME; settings: rat liver microsomes; average value from two experiments
Protocol: The microsomal stability of test compounds was evaluated using rat liver microsomes (BiolVT) with and without the cofactors nicotinamide adenine dinucleotide phosphate (NADPH) and undine-diphosphate-glucuronic acid (UDPGA). Reactions were performed in a final volume of 250 μl pre-warmed (37° C.) 100 mM phosphate buffer containing 5 mM MgCl2, 0.025 mg/ml alamethicin, and 0.5 mg/ml rat liver microsomes. NADPH and UDPGA were included at 1 mM and 2 mM respectively, where appropriate. Reactions were started with the addition of 1 μM (final concentration) test compound. Verapamil was used as the positive control. Solutions were incubated in a water bath at 37° C. and aliquots collected at 0.5, 5, 15, 30 and 60 min. Reactions were stopped by the addition of 5 volumes of cold acetonitrile with internal standards (200 nM caffeine and 100 nM tolbutamide). Samples were centrifuged at 3220 g for 40 min. An aliquot of supernatant was diluted 1:1 In ultra-pure H2O, then used for LC-MS/MS analysis. Peak areas were determined from extracted ion chromatograms. The slope value, k, was determined by linear regression of the natural logarithm of the remaining percentage of the parent drug vs. incubation time curve. The in vitro half-life (in vitro t½) was determined from the slope value: in vitro t½=0.693/k. Conversion of the in vitro t½ (min) into the in vitro intrinsic clearance (in vitro CLint, in μL/min/mg protein) was done using the following equation (mean of duplicate determinations): […]

| mPTP Rat brain pIC50 (mPTP [1]) | mPTP Human Platelets pIC50 (mPTP [2]) | microsomal CLint at 1 µM [3] [µL/min/mg] | mPTP Rat brain pIC50 (mPTP [1]; average value from a larger number of experiments) | SMILES |
| --- | --- | --- | --- | --- |
| 6.9 | 7.2 | 6.5 |  | Cc1c(F)cccc1NC(=O)/C=C/c1ccc2c(c1)[nH]c(=O)n2C [Example 7, (E)-N-(3-fluoro-2-methylphenyl)-3-(1-methyl-2-oxo-2,3-dihydro-1H-benzo[d]imidazol-5-yl)acrylamide] |
|  |  | 13 |  | Cc1c(F)cccc1NC(=O)/C=C/c1ccc2c(c1)NC(=O)C2C (stereo not shown) [Example 8, (E)-N-(3-fluoro-2-methylphenyl)-3-(3-methyl-2-oxoindolin-6-yl)acrylamide] |
|  |  | 17 |  | Cc1c(F)cccc1NC(=O)/C=C/c1ccc2c(c1F)NC(=O)C2 [Example 5, (E)-N-(3-fluoro-2-methylphenyl)-3-(7-fluoro-2-oxoindolin-6-yl)acrylamide] |
|  |  | 9.8 |  | Cc1c(F)cccc1NC(=O)/C=C/c1ccc2c(c1)[nH]c(=O)n2C1CC1 [Example 23, (E)-3-(1-cyclopropyl-2-oxo-2,3-dihydro-1H-benzo[d]imidazol-5-yl)-N-(3-fluoro-2-methylphenyl)acrylamide] |
| 7.7 |  |  |  | CO[C@H]1Cc2ccccc2[C@@H]1NC(=O)/C=C/c1ccc2c(C)n[nH]c2c1 [Example 54, (E)-N-((1S,2S)-2-methoxy-2,3-dihydro-1H-inden-1-yl)-3-(3-methyl-1H-indazol-6-yl)acrylamide] |
|  |  | 36.8 |  | Cc1c(F)cccc1NC(=O)/C(F)=C/c1ccc2c(c1)NC(=O)C2 [Example 47, (Z)-2-fluoro-N-(3-fluoro-2-methylphenyl)-3-(2-oxoindolin-6-yl)acrylamide] |
| 7.6 | 6.9 | 43 | 7.5*** | Cc1c(F)cccc1NC(=O)/C=C/c1ccc2cn[nH]c2c1 [Comparative Example 1, (E)-N-(2-methyl-3-fluorophenyl)-3-(1H-indazol-6-yl)acrylamide, reference compound] |
|  |  | 52.9 |  | Cc1n[nH]c2cc(/C=C/C(=O)NC3CCc4ccccc43)ccc12 (stereo not shown) [Example 25, (E)-N-(2,3-dihydro-1H-inden-1-yl)-3-(3-methyl-1H-indazol-6-yl)acrylamide] |
| 7.6 |  |  |  | Cc1ccc(F)c(C)c1NC(=O)/C=C/c1ccc2c(c1)[nH]c(=O)n2C [Example 30, (E)-N-(3-fluoro-2,6-dimethylphenyl)-3-(1-methyl-2-oxo-2,3-dihydro-1H-benzo[d]imidazol-5-yl)acrylamide] |
| 6.5 | 7.0 | 13 |  | Cc1c(F)cccc1NC(=O)/C=C/c1ccc2c(c1)NC(=O)C2 [Example 10, (E)-N-(3-fluoro-2-methylphenyl)-3-(2-oxoindolin-6-yl)acrylamide] |
|  |  | 9.85 |  | CCn1c(=O)[nH]c2cc(/C=C/C(=O)Nc3cccc(F)c3C)ccc21 [Example 22, (E)-3-(1-ethyl-2-oxo-2,3-dihydro-1H-benzo[d]imidazol-5-yl)-N-(3-fluoro-2-methylphenyl)acrylamide] |
|  | 7.0 | 17 |  | Cc1c(F)cccc1NC(=O)/C=C/c1ccc2oc(=O)[nH]c2c1 [Example 6, (E)-N-(3-fluoro-2-methylphenyl)-3-(2-oxo-2,3-dihydrobenzo[d]oxazol-5-yl)acrylamide] |

| SMILES | mPTP Rat brain pIC50 (mPTP [1]) | mPTP Human Platelets pIC50 (mPTP [2]) | microsomal CLint at 1 µM [3] [µL/min/mg] | mPTP Rat brain pIC50 (mPTP [1]; average value from a larger number of experiments) |
| --- | --- | --- | --- | --- |
| CO[C@H]1Cc2ccccc2[C@@H]1NC(=O)/C=C/c1ccc2c(F)n[nH]c2c1 [Example 73, (E)-3-(3-fluoro-1H-indazol-6-yl)-N-((1S,2S)-2-methoxy-2,3-dihydro-1H-Inden-1-yl)acrylamide] | 7.7 |  |  |  |
| Cc1cccc(C)c1NC(=O)/C=C/c1ccc2c(c1)NC(=O)C2 [Example 19, (E)-N-(2,6-dimethylphenyl)-3-(2-oxoindolin-6-yl)acrylamide] |  |  | 20 |  |
